Experimental data: publication PMC6315298 (2018)

Test system: Mango-II (RNA, aptamer) GCGUACGAAGGAGAGGAGAGGAAGAGGAGAGUACGC
Assay: fluorescence binding

Kd | SMILES
~ 1.4 nM | CN1C=CC(=C/C=C/c2sc3ccccc3[n+]2CC(=O)NCCOCCOCCOCCNC(=O)CCCC[C@@H]2SC[C@@H]3NC(=O)N[C@@H]32)c2ccccc21
1.1 nM | CN1C=CC(=Cc2sc3ccccc3[n+]2CC(=O)NCCOCCOCCOCCNC(=O)CCCC[C@@H]2SC[C@@H]3NC(=O)N[C@@H]32)c2ccccc21
